Columns and labels:
[1] = Phase 1 trial, rivastigmine and glycopyrrolate administrations: rivastigmine blood serum concentration time profile (FIG. 2A)
Text: The serum rivastigmine levels were obtained over the course of twelve hours post-administration.

[2] = Phase 1 trial, rivastigmine and trospium administrations: rivastigmine blood serum concentration time profile (FIG. 2B); settings: 6 mg rivastigmine fed state one hour after 20 mg trospium fasting (subject 1008) versus simultaneous fasting (1001, 1002, 1005)
Experimental: Patients 1001, 1002, and 1005 were administered trospium and rivastigmine simultaneously in a fasting state. Subject 1008 was administered trospium and rivastigmine in fasting and fed states, respectively.

In the case of `CCN(C)C(=O)Oc1cccc([C@H](C)N(C)C)c1` [rivastigmine], the “rivastigmine blood serum concentration (time profile)” value ([1]; patient 1006, co-formulated drug delivery element with glycopyrrolate taken in a fasting state, 12 hours post dose) is reported as 10 ng/mL, the “adverse effects, separate versus simultaneous administration” value ([1]; patients 1010 and 1011, glycopyrrolate fasted, rivastigmine with food one hour later) is reported as “reduced adverse effects, particularly nausea” and the “peak rivastigmine serum concentration, separate versus simultaneous administration” value ([1]; patients 1010 and 1011, glycopyrrolate fasted, rivastigmine with food one hour later, compared with patients 1003, 1004 coadministered fasted) is reported as “delayed peak serum concentration associated with lower peak rivastigmine levels”. The “peak rivastigmine blood serum level, taken with food” value [2] was “attenuated peak rivastigmine levels”.

Source: patent US12109202B2, “Fixed dose combination of cholinesterase inhibitor and a quaternary ammonium antimuscarinic agent to treat neurodegenerative cognitive disorders” (priority 2021, dated 2024)
